Test results: patent publication US8148371B2, “Adenine compound and use thereof” (Dainippon Sumitomo Pharma Co., Ltd., priority 2002, dated 2012)
Marks after values point to notes of the source that are not given here.

Test system: not listed separately
Assay: Metabolic stability on liver S9 of rat
Details: rat liver S9, test compound 1 μM, 37° C.
Experimental: The compound of the present invention is added to liver S9 solution, and the mixture is incubated at 37±0.5° C. for 5 minutes to 2 hours. By quantitatively analyzing at the definite interval the amount of the compound of the present invention remaining in the liver S9 solution with HPLC (high performance liquid chromatography), etc., the constant of quenching velocity is calculated and the half life is calculated.
The reaction on river S9 of a rat was carried out on a 96-well plate by using a robot for screening by Tecan Company. S9 solution was prepared by adding to 10 ml of liver S9 of a rat, 20 ml of 250 mM Kpi (pH 7.4) and 20 ml of deionized water. Cofactor solution was prepared by dissolving NADPH (220 mg) in deionized water (40.5 ml) to give finally a 6 mM solution. IS (Internal Standard) solution was prepared by adding 300 μL of IS solution (1 mM DMSO solution) to 30 ml of acetonitrile solution (100 times dilution). The test compound (1 μM DMSO solution) was dissolved in an incubator at 37° C., 35 μL of it was poured into each well of a 96-well plate (24 samples/plate and then, plates (a sample plate, a 96 well-plate for dilution, deep well plates for reaction and recovering, a plate for extraction of the solid phase) and the test samples (S9 solution, Cofactor solution, IS (Internal Standard) solution, Stop solution, acetonitrile for elution) were set to the specified position in the booth of the robot. The reaction started (the concentration of the test compound was 1 μM) and the mixture was incubated at 37° C. under stirring. The solid phase was extracted and at the same time the internal standard for analysis was added. To the recovered sample (200 μL/well) was added 50 μL of acetonitrile per each well and to 2 plates of FALCON Deep well were poured 100 μL of the solution per well. By subjecting to the LC/MS analysis, the chromatogram of the test sample and the internal standard were described and the peak area was calculated. And then, the stability (residual rate after reaction) was calculated by the internal standard method.

SMILES	Residual rate
COCCOC(=O)CSc1nc(N)c2nc(O)n(Cc3ccccc3)c2n1 [Example 49, 9-Benzyl-8-hydroxy-2-(2-methoxyethoxycarbonylmethyl)thioadenine]	0%
CCCCOc1nc(N)c2[nH]c(=O)n(Cc3cccc(CC(=O)OCC)c3)c2n1 [Example 80, 2-Butoxy-9-(3-ethoxycarbonylmethylbenzyl)-8-hydroxyadenine]	0%
CC(C)(C)OC(=O)CSc1nc(N)c2nc(O)n(Cc3ccccc3)c2n1 [Example 43, 9-Benzyl-2-(t-butoxycarbonylmethyl)thio-8-hydroxyadenine]	2%
CCCCOc1nc(N)c2nc(O)n(Cc3ccc(C(=O)OC)nc3)c2n1 [Example 17, 2-Butoxy-8-hydroxy-9-{(6-methoxycarbonyl-3-pyridyl)methyl}adenine]	28%
CCCCOc1nc(N)c2nc(O)n(Cc3cccc(C(=O)OC(C)C)c3)c2n1 [Example 3, 2-Butoxy-8-hydroxy-9-(3-isopropoxycarbonylbenzyl)adenine]	19%
CCCCCCCCOC(=O)CSc1nc(N)c2nc(O)n(Cc3ccccc3)c2n1 [Example 42, 9-Benzyl-8-hydroxy-2-(octyloxycarbonylmethyl)thioadenine]	3%
COC(=O)CNc1nc(N)c2nc(O)n(Cc3ccccc3)c2n1 [Example 31, 9-Benzyl-8-hydroxy-2-methoxycarbonylmethylaminoadenine]	3%
Nc1nc(SCC(=O)OCC(F)F)nc2c1nc(O)n2Cc1ccccc1 [Example 47, 9-Benzyl-2-(2,2-difluoroethoxycarbonylmetyl)thio-8-hydroxyadenine]	0%
COC(=O)COc1nc(N)c2nc(O)n(Cc3ccccc3)c2n1 [Example 64, 9-Benzyl-8-hydroxy-2-methoxycarbonylmethoxyadenine]	2%
CCCCOc1nc(N)c2nc(O)n(Cc3ccc(CC(=O)OCCN4CCOCC4)cc3)c2n1 [Example 73, 2-Butoxy-8-hydroxy-9-{4-(2-morpholinoethoxycarbonyl)methylbenzyl}adenine]	0%
Nc1nc(SCC(=O)OCCF)nc2c1nc(O)n2Cc1ccccc1 [Example 46, 9-Benzyl-2-(2-fluoroethoxycarbonylmetyl)thio-8-hydroxyadenine]	0%
CCCCOc1nc(N)c2nc(O)n(Cc3ccc(OCC(=O)OC)cc3)c2n1 [Example 22, 2-Butoxy-8-hydroxy-9-(4-methoxycarbonylmethoxybenzyl)adenine]	31%
C=CCOC(=O)CSc1nc(N)c2nc(O)n(Cc3ccccc3)c2n1 [Example 44, 2-(Allyloxycarbonylmethyl)thio-9-benzyl-8-hydroxyadenine]	0%
CCCCOc1nc(N)c2nc(O)n(Cc3cccc(C(=O)OCCN4CCOCC4)c3)c2n1 [Example 8, 2-Butoxy-8-hydroxy-9-{3-(2-morpholinoethoxycarbonyl)benzyl}adenine]	1%
CCOC(=O)CCCSc1nc(N)c2nc(O)n(Cc3ccccc3)c2n1 [Example 56, 9-Benzyl-2-(3-ethoxycarbonylpropyl)thio-8-hydroxyadenine]	1%
CCCCOc1nc(N)c2nc(O)n(Cc3cccc(C(=O)OCC(F)(F)F)c3)c2n1 [Example 4, 2-Butoxy-8-hydroxy-9-{3-(2,2,2-trifluorroethoxycarbonyl)benzyl}adenine]	25%
CCCCOc1nc(N)c2nc(O)n(Cc3ccc(CN4CCOCC4)cc3)c2n1 [Example 79, 2-Butoxy-8-hydroxy-9-(4-morpholinomethylbenzyl)adenine]	17%

Same assay, conditions: rat liver S9, test compound 10 μM (*), 37° C.

SMILES	Residual rate
Nc1nc(SCC(=O)OCc2ccccc2)nc2c1nc(O)n2Cc1ccccc1 [Example 45, 2-(Benzyloxycarbonylmethyl)thio-9-benzyl-8-hydroxyadenine]	8* %
CCOC(=O)CCSc1nc(N)c2nc(O)n(Cc3ccccc3)c2n1 [Example 55, 9-Benzyl-2-(2-ethoxycarbonylethyl)thio-8-hydroxyadenine]	4* %
CCOC(=O)CSc1nc(N)c2nc(O)n(Cc3ccccc3)c2n1 [Example 41, 9-Benzyl-2-(ethoxycarbonylmethyl)thio-8-hydroxyadenine]	2* %

Test system: plasma esterase
Assay: not given
Details: rat plasma, test compound 1 μM (*), 37° C., 15 minutes

SMILES	Residual rate
CCCCOc1nc(N)c2nc(O)n(Cc3ccc(CC(=O)SCC)cc3)c2n1 [Example 75, 2-Butoxy-9-{4-(S-ethylthiocarbonyl)methylbenzyl}-8-hydroxyadenine]	0* %
CCCCOc1nc(N)c2[nH]c(=O)n(Cc3cccc(CC(=O)OCC)c3)c2n1 [Example 80, 2-Butoxy-9-(3-ethoxycarbonylmethylbenzyl)-8-hydroxyadenine]	0* %
COC(=O)COc1nc(N)c2nc(O)n(Cc3ccccc3)c2n1 [Example 64, 9-Benzyl-8-hydroxy-2-methoxycarbonylmethoxyadenine]	0* %
CCCCOc1nc(N)c2nc(O)n(Cc3ccc(CC(=O)OCCN4CCOCC4)cc3)c2n1 [Example 73, 2-Butoxy-8-hydroxy-9-{4-(2-morpholinoethoxycarbonyl)methylbenzyl}adenine]	4* %
CCOC(=O)COc1nc(N)c2nc(O)n(Cc3ccccc3)c2n1 [Example 65, 9-Benzyl-2-ethoxycarbonylmethoxy-8-hydroxyadenine]	0* %
CCOC(=O)CCc1nc(N)c2nc(O)n(Cc3ccccc3)c2n1 [Example 62, 9-Benzyl-2-ethoxycarbonylethyl-8-hydroxy adenine]	0* %

Same assay, conditions: rat plasma, test compound 10 μM, 37° C., 15 minutes

SMILES	Residual rate
COCCOC(=O)CSc1nc(N)c2nc(O)n(Cc3ccccc3)c2n1 [Example 49, 9-Benzyl-8-hydroxy-2-(2-methoxyethoxycarbonylmethyl)thioadenine]	0%
CCCCOc1nc(N)c2[nH]c(=O)n(Cc3ccc(C(=O)OC)cc3)c2n1 [Example 11, 2-Butoxy-8-hydroxy-9-(4-methoxycarbonylbenzyl)adenine]	13%
CCC(=O)OCCOc1nc(N)c2nc(O)n(Cc3ccc(C)nc3)c2n1 [Example 37, 8-Hydroxy-9-(6-methyl-3-pyridyl)methyl-2-{2-(propionyloxy)ethoxy}adenine]	0%
CC(C)(C)OC(=O)CSc1nc(N)c2nc(O)n(Cc3ccccc3)c2n1 [Example 43, 9-Benzyl-2-(t-butoxycarbonylmethyl)thio-8-hydroxyadenine]	0%
CCCCOc1nc(N)c2nc(O)n(Cc3ccc(C(=O)OC)nc3)c2n1 [Example 17, 2-Butoxy-8-hydroxy-9-{(6-methoxycarbonyl-3-pyridyl)methyl}adenine]	0%
CCCCOc1nc(N)c2nc(O)n(Cc3cccc(C(=O)OC(C)C)c3)c2n1 [Example 3, 2-Butoxy-8-hydroxy-9-(3-isopropoxycarbonylbenzyl)adenine]	20%
Nc1nc(SCC(=O)OCc2ccccc2)nc2c1nc(O)n2Cc1ccccc1 [Example 45, 2-(Benzyloxycarbonylmethyl)thio-9-benzyl-8-hydroxyadenine]	0%
CCCCCCCCOC(=O)CSc1nc(N)c2nc(O)n(Cc3ccccc3)c2n1 [Example 42, 9-Benzyl-8-hydroxy-2-(octyloxycarbonylmethyl)thioadenine]	0%
COC(=O)CNc1nc(N)c2nc(O)n(Cc3ccccc3)c2n1 [Example 31, 9-Benzyl-8-hydroxy-2-methoxycarbonylmethylaminoadenine]	0%
Nc1nc(SCC(=O)OCC(F)F)nc2c1nc(O)n2Cc1ccccc1 [Example 47, 9-Benzyl-2-(2,2-difluoroethoxycarbonylmetyl)thio-8-hydroxyadenine]	0%
CCOC(=O)CCSc1nc(N)c2nc(O)n(Cc3ccccc3)c2n1 [Example 55, 9-Benzyl-2-(2-ethoxycarbonylethyl)thio-8-hydroxyadenine]	0%
CCCCNc1nc(N)c2nc(O)n(Cc3ccc(C(=O)OC)cc3)c2n1 [Example 27, 2-Butylamino-8-hydroxy-9-(4-methoxycarbonylbenzyl)adenine]	0%
Nc1nc(SCC(=O)OCCF)nc2c1nc(O)n2Cc1ccccc1 [Example 46, 9-Benzyl-2-(2-fluoroethoxycarbonylmetyl)thio-8-hydroxyadenine]	0%
CCCCOc1nc(N)c2nc(O)n(Cc3ccc(C(=O)OC(C)C)cc3)c2n1 [Example 12, 2-Butoxy-8-hydroxy-9-(4-isopropoxycarbonylbenzyl)adenine]	29%
CCOC(=O)CSc1nc(N)c2nc(O)n(Cc3ccccc3)c2n1 [Example 41, 9-Benzyl-2-(ethoxycarbonylmethyl)thio-8-hydroxyadenine]	0%
CCCCOc1nc(N)c2nc(O)n(Cc3ccc(OCC(=O)OC)cc3)c2n1 [Example 22, 2-Butoxy-8-hydroxy-9-(4-methoxycarbonylmethoxybenzyl)adenine]	0%
C=CCOC(=O)CSc1nc(N)c2nc(O)n(Cc3ccccc3)c2n1 [Example 44, 2-(Allyloxycarbonylmethyl)thio-9-benzyl-8-hydroxyadenine]	0%
CCCCOc1nc(N)c2nc(O)n(Cc3ccc(C(=O)OCc4cccnc4)cc3)c2n1 [Example 13, 2-Butoxy-8-hydroxy-9-{4-(3-pyridylmethoxycarbonyl)benzyl}adenine]	10%
CCCCOc1nc(N)c2nc(O)n(Cc3cccc(C(=O)OCc4cccnc4)c3)c2n1 [Example 9, 2-Butoxy-8-hydroxy-9-{3-(3-pyridylmethoxycarbonyl)benzyl}adenine]	1%
CCCCOc1nc(N)c2nc(O)n(Cc3ccc(C(=O)OC(C)C)nc3)c2n1 [Example 18, 2-Butoxy-8-hydroxy-9-{(6-isopropoxycarbonyl-3-pyridyl)methyl}adenine]	0%
CCCCOc1nc(N)c2nc(O)n(Cc3cccc(C(=O)OCCN4CCOCC4)c3)c2n1 [Example 8, 2-Butoxy-8-hydroxy-9-{3-(2-morpholinoethoxycarbonyl)benzyl}adenine]	16%
CCOC(=O)CCCSc1nc(N)c2nc(O)n(Cc3ccccc3)c2n1 [Example 56, 9-Benzyl-2-(3-ethoxycarbonylpropyl)thio-8-hydroxyadenine]	0%
CCCCOc1nc(N)c2nc(O)n(Cc3cccc(C(=O)OCC(F)(F)F)c3)c2n1 [Example 4, 2-Butoxy-8-hydroxy-9-{3-(2,2,2-trifluorroethoxycarbonyl)benzyl}adenine]	23%
CCCCOc1nc(N)c2nc(O)n(Cc3cccc(C(=O)OCCOCc4ccccc4)c3)c2n1 [Example 5, 2-Butoxy-8-hydroxy-9-{3-(2-benzyloxyethoxycarbonyl)benzyl}adenine]	18%

Test system: cells of rat spleen
Assay: cells
Type: cell-based, SD rat
Details: not given

SMILES	Minimum effective concentration (interferon inducing activity)
CCOC(=O)CCc1nc(N)c2nc(O)n(Cc3ccccc3)c2n1 [Example 62, 9-Benzyl-2-ethoxycarbonylethyl-8-hydroxy adenine]	30 nM

Same assay, conditions: 24 h, read-out: Minimum effective concentration (interferon inducing activity)

SMILES	minimal effective concentration
CCCCOc1nc(N)c2nc(O)n(Cc3ccc(CC(=O)SCC)cc3)c2n1 [Example 75, 2-Butoxy-9-{4-(S-ethylthiocarbonyl)methylbenzyl}-8-hydroxyadenine]	0.003 µM
CCCCOc1nc(N)c2[nH]c(=O)n(Cc3cccc(CC(=O)OCC)c3)c2n1 [Example 80, 2-Butoxy-9-(3-ethoxycarbonylmethylbenzyl)-8-hydroxyadenine]	0.001 µM
CCCCOc1nc(N)c2nc(O)n(Cc3ccc(C(=O)OC)nc3)c2n1 [Example 17, 2-Butoxy-8-hydroxy-9-{(6-methoxycarbonyl-3-pyridyl)methyl}adenine]	0.001 µM
COC(=O)COc1nc(N)c2nc(O)n(Cc3ccccc3)c2n1 [Example 64, 9-Benzyl-8-hydroxy-2-methoxycarbonylmethoxyadenine]	0.003 µM
CCCCOc1nc(N)c2nc(O)n(Cc3ccc(CC(=O)OCCN4CCOCC4)cc3)c2n1 [Example 73, 2-Butoxy-8-hydroxy-9-{4-(2-morpholinoethoxycarbonyl)methylbenzyl}adenine]	0.0003 µM
CCOC(=O)COc1nc(N)c2nc(O)n(Cc3ccccc3)c2n1 [Example 65, 9-Benzyl-2-ethoxycarbonylmethoxy-8-hydroxyadenine]	0.03 µM
CCCCOc1nc(N)c2nc(O)n(Cc3ccc(CN4CCOCC4)cc3)c2n1 [Example 79, 2-Butoxy-8-hydroxy-9-(4-morpholinomethylbenzyl)adenine]	0.0003 µM
